Source: article PMC6534063, “Synthesis of modified 1,5-imino-D-xylitols as ligands for lysosomal β-glucocerebrosidase” (Monatshefte Fur Chemie, 2019)
Read-outs that look alike come from different tables or passages of the source.

Tests used:
[1] = target: β-xylosidase from Thermoanaerobacterium saccharolyticum; conditions: read-out: Ki (Xyl Therm. sac.), cited from earlier work
[2] = target: human lysosomal β-glucocerebrosidase (GCase); conditions: cited from earlier work; for IC50: compounds 10a-10b
[3] = target: S. cerevisiae α-glucosidase; assay: Ki determination with α-glucosidase S. cerevisiae; type: biochemical; conditions: 37 °C, 50 mM sodium phosphate buffer pH 7, PNP α-Glc substrate; read-out: Ki α-Glu, S. cer.
From the text: (§1) For the biological evaluation of the synthesized DIX derivatives 19, 23, 26, and 28, we have probed a series of standard glycoside hydrolases, including β-glucosidase from Agrobacterium sp. (ABG), β-galactosidase from E. coli, Fabrazyme (commercial recombinant human lysosomal α-galactosidase), α-glucosidase S. cerevisiae, and human β-glucocerebrosidase GCase, to investigate ligand activity as well as selectivity. […] This increase in selectivity might be explained by the fact that compounds 26 and 28 combine the advantages of both features, the ethyl group at position C-1 locking the structure in the ^1C4 conformation as well as the lipophilic substituents at the ring nitrogen. The former has been implied for favorable ligand properties and the fitting into the active site of GCase. The latter interacts with the lipophilic entrance to the active site of GCase mimicking the ceramide residue of the natural substrate glucosyl ceramide. Compounds 26 and 28 will serve as building blocks for further functionalisation as proposed.
(§2) Kinetic studies were performed at 37 °C in an appropriate buffer using a known concentration of enzyme (specific conditions depicted below). Ki determinations were performed using the corresponding 4-nitrophenyl α- or β-D-glycopyranoside as substrate. In a typical assay, the enzyme was incubated with different inhibitor concentrations for up to 5 min before initiating the reaction by the addition of substrate. The initial reaction rate was measured by monitoring the increase in absorbance at 400 nm for up to 10 min. Ki determinations were performed using at least two different substrate concentrations. For each inhibitor, a range of four-to-six inhibitor concentrations bracketing the Ki value ultimately determined was used for each substrate concentration. Dixon plots (1/v vs. [I]) were constructed to validate the use of the competitive inhibition model. The data were then fitted using non-linear regression analysis with Grafit 7.0.

[4] = target: T1, Fabrazyme (commercial recombinant human lysosomal α-galactosidase) (Homo sapiens, UniProt P06280); assay: Ki determination with Fabrazyme; type: biochemical; conditions: 37 °C, citrate/phosphate buffer with Triton X-100 and taurocholic acid pH 5.5, 4-nitrophenyl glycopyranoside substrate; read-out: Ki α-Gal, Fabrazyme
T1 construct: purchased Fabrazyme, a commercial product; received as a gift from Dr Lorne Clarke, University of British Columbia
T1 sequence (P06280 32-429): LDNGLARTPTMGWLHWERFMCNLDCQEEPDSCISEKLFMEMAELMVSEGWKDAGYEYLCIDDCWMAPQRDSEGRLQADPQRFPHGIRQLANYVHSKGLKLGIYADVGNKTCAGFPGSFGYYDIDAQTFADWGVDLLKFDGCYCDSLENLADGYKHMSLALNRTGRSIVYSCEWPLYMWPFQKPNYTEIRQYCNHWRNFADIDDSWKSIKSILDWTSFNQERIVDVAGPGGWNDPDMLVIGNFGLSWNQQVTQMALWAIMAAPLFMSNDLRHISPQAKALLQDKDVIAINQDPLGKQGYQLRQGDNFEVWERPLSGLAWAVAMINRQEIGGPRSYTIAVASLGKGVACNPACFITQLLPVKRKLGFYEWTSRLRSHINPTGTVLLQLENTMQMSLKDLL
From the text: as §1, §2

[5] = target: T2, E.coli lac z β-galactosidase (Escherichia coli, UniProt P00722); assay: Ki determination with β-galactosidase from E. coli; type: biochemical; conditions: 37 °C, 50 mM sodium phosphate, 1.0 mM MgCl2 pH 7, 4-nitrophenyl glycopyranoside substrate; read-out: Ki β-Gal, E. coli
T2 construct: purchased Sigma-Aldrich
From the text: as §1, §2

[6] = target: T3, β-glucosidase/β-galactosidase from Agrobacterium sp. (ABG) (Agrobacterium sp., UniProt P12614); assay: Ki determination with β-glucosidase from Agrobacterium sp. (ABG); type: biochemical; conditions: for Ki: 37 °C, 50 mM sodium phosphate buffer pH 7, 4-nitrophenyl glycopyranoside substrate, read-out: Ki β-Glu, ABG
T3 construct: made in house; host or cells: E. coli
T3 sequence (P12614 1-459): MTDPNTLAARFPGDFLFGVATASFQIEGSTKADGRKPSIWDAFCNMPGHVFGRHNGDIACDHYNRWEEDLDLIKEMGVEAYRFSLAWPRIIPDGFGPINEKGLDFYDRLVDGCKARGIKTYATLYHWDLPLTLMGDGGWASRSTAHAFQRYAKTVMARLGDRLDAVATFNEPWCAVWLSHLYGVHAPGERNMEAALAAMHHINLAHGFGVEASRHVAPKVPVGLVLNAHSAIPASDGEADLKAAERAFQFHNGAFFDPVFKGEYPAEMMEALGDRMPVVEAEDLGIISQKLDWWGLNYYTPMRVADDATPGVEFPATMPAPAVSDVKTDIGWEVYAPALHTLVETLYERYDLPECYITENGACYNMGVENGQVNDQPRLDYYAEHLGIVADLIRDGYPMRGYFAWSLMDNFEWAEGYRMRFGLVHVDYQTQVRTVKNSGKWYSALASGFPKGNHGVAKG
From the text: as §1, §2

[7] = target: T4, human β-glucocerebrosidase (GCase) (Homo sapiens, UniProt P04062); assay: Ki determination with human β-glucocerebrosidase (GCase); type: biochemical; conditions: 37 °C, citric acid/phosphate buffer with Triton X-100 and taurocholic acid pH 7.0, 4-nitrophenyl glycopyranoside substrate; read-out: Ki β-Glu, Gaucher (GCase)
T4 construct: gift of Dr. Lorne Clarke, University of British Columbia
T4 sequence (P04062 40-536): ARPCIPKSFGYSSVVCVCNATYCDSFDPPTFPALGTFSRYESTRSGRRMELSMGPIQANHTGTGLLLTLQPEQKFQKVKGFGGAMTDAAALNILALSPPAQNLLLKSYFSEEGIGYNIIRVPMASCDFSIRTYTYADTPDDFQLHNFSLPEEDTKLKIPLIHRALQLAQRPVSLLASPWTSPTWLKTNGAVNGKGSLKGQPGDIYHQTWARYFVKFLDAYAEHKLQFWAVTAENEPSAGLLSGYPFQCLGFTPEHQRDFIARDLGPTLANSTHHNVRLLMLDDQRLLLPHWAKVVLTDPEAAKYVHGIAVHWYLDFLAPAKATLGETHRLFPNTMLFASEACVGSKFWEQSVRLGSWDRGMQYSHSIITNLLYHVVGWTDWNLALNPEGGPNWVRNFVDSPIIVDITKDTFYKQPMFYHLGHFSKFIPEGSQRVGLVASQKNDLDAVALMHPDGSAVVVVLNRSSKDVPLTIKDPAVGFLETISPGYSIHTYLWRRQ
From the text: as §1, §2

[8] = C-1 alkyl modified DIX analogues 15
[9] = D-xylo 1-C-iminosugar glycosides 14

T2 sequence (P00722 2-1024 limits assumed): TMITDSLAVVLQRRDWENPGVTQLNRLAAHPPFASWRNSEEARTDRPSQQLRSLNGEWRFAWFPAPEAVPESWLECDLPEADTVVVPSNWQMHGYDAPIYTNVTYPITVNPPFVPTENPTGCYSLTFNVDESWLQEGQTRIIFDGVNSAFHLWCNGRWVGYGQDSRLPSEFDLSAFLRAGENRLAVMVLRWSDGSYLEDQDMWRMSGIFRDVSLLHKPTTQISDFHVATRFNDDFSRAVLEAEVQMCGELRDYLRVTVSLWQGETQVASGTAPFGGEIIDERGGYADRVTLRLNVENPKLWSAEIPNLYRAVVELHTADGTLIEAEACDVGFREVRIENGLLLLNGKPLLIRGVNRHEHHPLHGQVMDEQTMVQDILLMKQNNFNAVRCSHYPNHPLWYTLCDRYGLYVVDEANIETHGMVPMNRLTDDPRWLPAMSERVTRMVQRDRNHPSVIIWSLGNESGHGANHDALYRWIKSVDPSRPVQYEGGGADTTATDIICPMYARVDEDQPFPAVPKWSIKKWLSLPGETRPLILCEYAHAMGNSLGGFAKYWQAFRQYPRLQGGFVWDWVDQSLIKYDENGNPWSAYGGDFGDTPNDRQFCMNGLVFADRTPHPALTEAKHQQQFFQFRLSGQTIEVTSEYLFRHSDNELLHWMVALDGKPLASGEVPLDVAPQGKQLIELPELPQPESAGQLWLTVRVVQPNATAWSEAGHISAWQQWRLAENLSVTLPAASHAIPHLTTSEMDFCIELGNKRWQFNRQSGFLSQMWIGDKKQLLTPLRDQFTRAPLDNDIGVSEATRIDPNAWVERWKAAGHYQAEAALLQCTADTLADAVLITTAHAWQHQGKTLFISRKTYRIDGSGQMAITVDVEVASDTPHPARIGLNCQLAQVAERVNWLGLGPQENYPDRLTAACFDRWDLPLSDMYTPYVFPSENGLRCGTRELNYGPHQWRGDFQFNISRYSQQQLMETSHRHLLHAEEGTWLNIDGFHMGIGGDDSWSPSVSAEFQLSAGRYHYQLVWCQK

COC(=O)[C@H](CCCCN1C[C@@H](O)[C@H](O)[C@@H](O)C1)NS(=O)(=O)c1cccc2c(N(C)C)cccc12 [8, R^1 = NHdansyl, R^2 = OMe]
Ki ([1]; N-modified DIX derivatives 8): 10 µM

COC(=O)[C@H](CCCCN1C[C@@H](O)[C@H](O)[C@@H](O)C1)NC(=O)[C@H](CCCCN1C[C@@H](O)[C@H](O)[C@@H](O)C1)NS(=O)(=O)c1cccc2c(N(C)C)cccc12 [8, R^1 = NHdansyl, R^2 =]
Ki ([1]; N-modified DIX derivatives 8): 21 µM

COC(=O)[C@H](CCCCN1C[C@@H](O)[C@H](O)[C@@H](O)C1)N1C[C@@H](O)[C@H](O)[C@@H](O)C1 [8, R^1 = R^2 = OMe]
Ki ([1]; N-modified DIX derivatives 8): 25 µM

N#CCCN1C[C@@H](O)[C@H](O)[C@@H](O)C1 [Compound 7a]
Ki ([1]; N-modified DIX derivatives 7): 24 µM

COC(=O)CCN1C[C@@H](O)[C@H](O)[C@@H](O)C1 [Compound 7b]
Ki ([1]; N-modified DIX derivatives 7): 35 µM

CCCCCC[C@H]1NC[C@@H](O)[C@H](O)[C@H]1O [Compound 10a]
IC50 [2]: 0.019 µM

CCCCCCO[C@H]1CNC[C@@H](O)[C@@H]1O [Compound 10b]
IC50 [2]: 0.009 µM

CCOC(=O)CC[C@H]1NC[C@@H](O)[C@H](O)[C@H]1O [Compound 19, (1R)-1-C-(Ethyloxycarbonylethyl)-1,5-dideoxy-1,5-imino-D-xylitol]
Ki [3]: > 1000 µM | Ki [4]: > 1000 µM | Ki [5]: > 1000 µM | Ki [6]: 2.1 µM | Ki [7]: 5.1 µM

O=C(CC[C@H]1NC[C@@H](O)[C@H](O)[C@H]1O)NCCc1c[nH]cn1 [Compound 23, (1R)-1-C-[(Imidazo-4-yl)ethylaminocarbonylethyl]-1,5-dideoxy-1,5-imino-D-xylitol]
Ki [3]: > 1000 µM | Ki [4]: > 1000 µM | Ki [5]: > 1000 µM | Ki [6]: 1.6 µM | Ki [7]: 1.1 µM

CC[C@@H]1[C@H](O)[C@@H](O)[C@H](O)CN1CCCCCC(=O)OC [Compound 26, (1R)-1-C-Ethyl-N-(methyloxycarbonylpentyl)-1,5-dideoxy-1,5-imino-D-xylitol]
Ki [3]: > 1000 µM | Ki [4]: > 1000 µM | Ki [5]: > 1000 µM | inhibition of β-Glu ABG, in words [6]: No detectable inhibition | Ki [6]: > 1000 µM | Ki [7]: 57 µM

CC[C@@H]1[C@H](O)[C@@H](O)[C@H](O)CN1CCCCCC(=O)NCCc1c[nH]cn1 [Compound 28, (1R)-1-C-Ethyl-N-[(imidazo-4-yl)ethylaminocarbonylpentyl]-1,5-dideoxy-1,5-imino-D-xylitol]
Ki [3]: > 1000 µM | Ki [4]: > 1000 µM | Ki [5]: > 1000 µM | inhibition of β-Glu ABG, in words [6]: No detectable inhibition | Ki [6]: > 1000 µM | Ki [7]: 4.1 µM

CCC[C@H]1NC[C@@H](O)[C@H](O)[C@H]1O [R = (CH2)2CH3]
Ki [2, 8]: 1.3 µM

OCC[C@H]1NC[C@@H](O)[C@H](O)[C@H]1O [R = (CH2)2OH]
Ki [2, 8]: 26.7 µM

CCCCCCCCC[C@H]1NC[C@@H](O)[C@H](O)[C@H]1O [R = C9H19]
Ki ([2]; 1-C-alkyl imino-D-xylitols 9): 0.0022 µM

CCCCCCCCCCCC[C@H]1NC[C@@H](O)[C@H](O)[C@H]1O [R = C12H25]
Ki ([2]; 1-C-alkyl imino-D-xylitols 9): 0.031 µM

CC[C@H]1NC[C@@H](O)[C@H](O)[C@H]1O [R = CH2CH3]
Ki [2, 8]: 2.3 µM

CC(C)[C@H]1NC[C@@H](O)[C@H](O)[C@H]1O [R = CH(CH3)2]
Ki [2, 8]: 12.4 µM

N#C[C@H]1NC[C@@H](O)[C@H](O)[C@H]1O [R = CN]
Ki [2, 8]: 34 µM

O[C@@H]1[C@@H](O)[C@@H](CCCCCOCC23CC4CC(CC(C4)C2)C3)NC[C@H]1O [R^1 = C-C, n=2, R^2 =]
Ki [2, 9]: 0.001 µM

O[C@@H]1[C@@H](O)[C@@H](CC=CCCOCC23CC4CC(CC(C4)C2)C3)NC[C@H]1O [R^1 = C=C, n=2, R^2 =]
Ki [2, 9]: 0.002 µM
